Reference: patent US11660280B2, “Treatment of drug resistant gliomas” (OKLAHOMA MEDICAL RESEARCH FOUNDATION, priority 2017, dated 2023)

Experiments:
[1] = in vivo; cited from earlier work
MGMT = assay: ELISA protein level in human GBM cell lysates; type: cell-based
Method: ELISA for HIF-1a, MPG and MGMT. Protein expressions were assessed in all six glioma cell lines for all four groups of treatment (cell alone, cells with TMZ, cells with OKN, cells with combined OKN and TMZ). Cells were lysed before assaying. In brief, cells were washed by cold PBS gently, and then detached with trypsin, and collected by centrifugation at 1,000×g for 5 minutes. Then, cells were washed three times in cold PBS, then suspended in fresh lysis buffer. Lysates were centrifuged at 1,500×g for 10 minutes at 2-8° C. to remove cellular debris.
The assay is based on the sandwich ELISA principle. Each well of the supplied microtiter plate has been pre-coated with a target specific capture antibody. Standards or samples are added to the wells and the target antigen binds to the capture antibody. Unbound Standard or sample is washed away. A biotin-conjugated detection antibody is then added which binds to the captured antigen. Unbound detection antibody is washed away. An Avidin-Horseradish Peroxidase (HRP) conjugate is then added which binds to the biotin. Unbound Avidin-HRP conjugate is washed away. A TMB substrate is then added which reacts with the HRP enzyme resulting in color development. A sulfuric acid stop solution is added to terminate color development reaction and then the optical density (OD) of the well is measured at a wavelength of 450 nm±2 nm. The OD of an unknown sample can then be compared to an OD standard curve generated using known antigen concentrations in order to determine its antigen concentration.
The antigen concentration determined from ELISA was then normalized to the total protein concentration of each cell lysate in order to have comparison between groups. ELISA Kits for N-Methylpurine DNA Glycosylase (MPG) and for Hypoxia Inducible Factor 1 Alpha (HIF1a) were purchased from CLOUD-CLONE CORP.(CCC) and for Human MGMT from LifeSpan Biosciences, Inc.

HIF-1α = assay: RT-PCR gene-fold changes in human GBM cells; type: cell-based
Method: Quantification of mRNA by real-time quantitative RT-PCR for HIF-1a, MPG and MGMT. Total RNA from all cell lines with all treatments was purified with an RNeasy Mini Kit (Qiagen), and quantified by spectrophotometry (Nanodrop). cDNA was synthesized using SuperScript IV Reverse Transcriptase Kit (Invitrogen).
Target gene mRNA was amplified and measured by Bio-Rad CFX96™ Real Time System. Gene expression was determined using the SYBR Select Master Mix (Applied Biosystems). […] The reaction is characterized by the point during cycling when amplification of PCR products is first detected, rather than the amount of PCR product accumulated after a fixed number of cycles. The higher the starting quantity of the template, the earlier a significant increase in fluorescence is observed. The threshold cycle is defined as the fractional cycle number at which fluorescence passes a fixed threshold above the baseline. Fluorescence data were converted into cycle threshold measurements exported to Microsoft Excel. Glyceraldehyde-3-phosphatase dehydrogenase (GAPDH) mRNA expression levels were used as the quantitative internal control. For precise quantification, the mRNA expression level of each sample was normalized using the expression of the GAPDH gene.
All primers were synthesized by Integrated DNA Technologies. The primers used were: […]

human G55 xenograft = assay: Orthotopic G55 human GBM xenograft in nude mice (survival, MRI tumor volume, perfusion rCBF); type: in vivo, mouse
Method: Mice and Treatments. Animal studies were conducted in accordance to the OMRF IACUC (Institutional Animal Care and Use Committee) policies, which follow NIH guidelines. Two-month-old male nude mice (Hsd:Athymic Nude-Foxnlnu mice; Harlan Inc., Indianapolis, Ind.) were implanted intra-cerebrally with human G55 xenograft cells (1×10^7) per mL suspended in 4 μL in cell culture media of 1% aragose solution. Once tumors reached 10-15 mm^3 (determined via MRI), mice were either treated every 3 days with OKN-007 (150 mg/kg; via drinking water continuously) or TMZ (30 mg/kg via gavage every 3 days). TMZ was dissolved in 5% DMSO and 5% solutol-15 in sterile saline. Mice were treated until the tumor reached 100-150 mm^3 or for a total of up to 60 days after tumors were detected by MRI (>5 mm^3).
MRI. MRI experiments were performed on a Bruker Bio-spec 7.0 Tesla/30-cm horizontal-bore magnet imaging system. […] T2-weighted imaging was obtained, and tumor volumes were calculated from MRI datasets.
Perfusion imaging. In order to assess microvascular alterations associated with tumor capillaries, the perfusion imaging method, arterial spin labeling (ASL), was used. Perfusion maps were obtained on a single axial slice of the brain located on the point of the rostro-caudal axis where the tumor has the largest cross-section. Five regions of interest (ROIs) were manually outlined around the tumor, and appropriate ROIs were also taken from the contralateral side of the brain for comparison purposes. To calculate the differences in rCBF values, tumor rCBF values were obtained at late (days 18-26 following intracerebral implantation of cells for untreated mice) and early (days 10-13 following cell implantation) tumor stages, and normalized to rCBF values in the contralateral brain region of corresponding animals.
Statistical analyses. Survival curves were analyzed using Kaplan-Meier curves. Tumor volumes, changes in normalized rCBF, and LBP levels were compared by two-way ANOVA with multiple comparisons. Data were represented as mean±SD, and P-values of either *0.05, **0.01, ***0.001, and ****0.0001 were considered statistically significant.
Mice and Treatments. Animal studies were conducted in accordance to the OMRF IACUC (Institutional Animal Care and Use Committee) policies, which follow NIH guidelines. […] Once tumors reached 10-15 mm^3 (determined via MRI), mice were either treated daily with OKN-007 in the drinking water (150 mg/kg; 0.20% w/v for a 20 g mouse), or every 3 days with TMZ (30 mg/kg). […] Water bottles were weighed, and the amount of OKN-007 consumed per mouse was determined. […]

[2] = test system: GBM cells (LN229, U138, G55, U251, T98, LN18); assay: Cell viability at 1 mM vs 2 mM OKN; type: cell-based, human
[3] = test system: LBP (lipopolysaccharide binding protein); assay: LBP ELISA in tumor tissue and blood serum of G55 glioma-bearing mice; type: in vivo, mouse
Method: Lipopolysaccharide binding protein (LBP) ELISA assay. The LBP ELISA kit (Antibodies-Online.com; ABIN370808) is specific for mouse LBP levels in serum, plasma and tissue samples. This is a colorimetric assay that was read on a micro plate reader for measurement of absorbance at 450/620 nm. LBP concentrations were calculated from a standard curve and multiplied by appropriate dilution factors.

Compound: CC(C)(C)[N+]([O-])=Cc1ccc(S(=O)(=O)O)cc1S(=O)(=O)O [OKN-007, 2,4-disulfonyl phenyl tert-butyl nitrone]
- crossing of the blood brain barrier [1]: can readily cross the BBB
- ELISA protein level MGMT (MGMT; G55 cells, UT 0.37): 0.31 ng/mg cell lysate
- ELISA protein level MGMT (MGMT; LN18 cells, UT 1.23): 0.98 ng/mg cell lysate
- ELISA protein level MGMT (MGMT; LN229 cells, UT 0.67): 0.69 ng/mg cell lysate
- ELISA protein level MGMT (MGMT; T98 cells, UT 0.62): 0.84 ng/mg cell lysate
- ELISA protein level MGMT (MGMT; U138 cells, UT 0.77): 0.75 ng/mg cell lysate
- ELISA protein level MGMT (MGMT; U251 cells, UT 0.92): 0.91 ng/mg cell lysate
- RT-PCR gene-fold change HIF-1α (HIF-1α; G55 cells (TMZ-resistant), UT 1.00): 1.20 fold
- RT-PCR gene-fold change HIF-1α (HIF-1α; LN18 cells (TMZ-resistant), UT 1.03): 1.35 fold
- RT-PCR gene-fold change HIF-1α (HIF-1α; LN229 cells (TMZ-sensitive), UT 1.00): 1.09 fold
- RT-PCR gene-fold change HIF-1α (HIF-1α; T98 cells (TMZ-resistant), UT 1.00): 0.58 fold
- RT-PCR gene-fold change HIF-1α (HIF-1α; U138 cells (TMZ-resistant), UT 1.00): 2.93 fold
- RT-PCR gene-fold change HIF-1α (HIF-1α; U251 cells (TMZ-sensitive), UT 1.00): 1.59 fold
- percent of treated mice alive 60 days following tumor detection (human G55 xenograft; G55 glioma-bearing nude mice, OKN-007 150 mg/kg in drinking water, TMZ 30 mg/kg gavage every 3 days, n=5): 20%
- tumor volumes compared to UT mice (human G55 xenograft; MRI at 19-22 days following tumor detection, G55 glioma-bearing mice): significantly decreased tumor volumes
- tumor volumes compared to UT mice (human G55 xenograft; last MRI time-point for each treatment group): no significant difference in tumor volumes
- tumor perfusion rates compared to TMZ treatment (human G55 xenograft; perfusion MRI, no significant differences between treated groups): more normalized perfusion rates
- reduction of cell viabilities, 1 mM OKN compared to the 2 mM concentration ([2]; LN229, U138, G55 cells): just as effective
- reduction of cell viabilities, 2 mM OKN compared to the 1 mM concentration ([2]; U251, T98, LN18 cells): slightly more effective
- LBP levels in tumor tissues compared to UT mice [3]: significantly less
